Measured values taken from ChEMBL document CHEMBL4732037, “Drugging the undruggable: a computational chemist''s view of KRASG12C” (RSC Med Chem, 2021).

Tests used:
[1] = Lipophilicity, log D of compound; assay type: physicochemical; conditions: octanol/water
[2] = Efflux ratio in human Caco2 cells; assay type: ADME, cell-based; conditions: Caco-2

| Structure (SMILES) | logD [1] | efflux ratio [2] |
| --- | --- | --- |
| C=CC(=O)N1CCN2c3c(cnc4cc(-c5c(O)cccc5F)c(Cl)cc34)NC(=O)[C@H]2C1 | 3 | – |
| C=CC(=O)N1CCN2c3c(cnc4cc(-c5c(O)cccc5F)c(Cl)cc34)N(C)C(=O)[C@H]2C1 | 3 | 0.9 |
